The kinase profiling compilation of Christmann-Franck et al. (2016)
One block for each compound: values may come before it.

Experiments:
Test in all cases: radiometric filter-binding kinase assay
BRSK2 (human) = BRSK2 (human) (UniProt Q8IWQ3)
STK3 (human) = STK3 (human) (UniProt Q13188)
MAPK3 (human) = MAPK3 (human) (UniProt P27361)
SYK (human) = SYK (human) (UniProt P43405)
CAMKK2 (human) = CAMKK2 (human) (UniProt Q96RR4)
IKBKE (human) = IKBKE (human) (UniProt Q14164)
BRSK1 (human) = BRSK1 (human) (UniProt Q8TDC3)
DYRK1A (human) = DYRK1A (human) (UniProt Q13627)
DAPK1 (human) = DAPK1 (human) (UniProt P53355)
DAPK1 (human), sequence (P53355 whole entry, looked up): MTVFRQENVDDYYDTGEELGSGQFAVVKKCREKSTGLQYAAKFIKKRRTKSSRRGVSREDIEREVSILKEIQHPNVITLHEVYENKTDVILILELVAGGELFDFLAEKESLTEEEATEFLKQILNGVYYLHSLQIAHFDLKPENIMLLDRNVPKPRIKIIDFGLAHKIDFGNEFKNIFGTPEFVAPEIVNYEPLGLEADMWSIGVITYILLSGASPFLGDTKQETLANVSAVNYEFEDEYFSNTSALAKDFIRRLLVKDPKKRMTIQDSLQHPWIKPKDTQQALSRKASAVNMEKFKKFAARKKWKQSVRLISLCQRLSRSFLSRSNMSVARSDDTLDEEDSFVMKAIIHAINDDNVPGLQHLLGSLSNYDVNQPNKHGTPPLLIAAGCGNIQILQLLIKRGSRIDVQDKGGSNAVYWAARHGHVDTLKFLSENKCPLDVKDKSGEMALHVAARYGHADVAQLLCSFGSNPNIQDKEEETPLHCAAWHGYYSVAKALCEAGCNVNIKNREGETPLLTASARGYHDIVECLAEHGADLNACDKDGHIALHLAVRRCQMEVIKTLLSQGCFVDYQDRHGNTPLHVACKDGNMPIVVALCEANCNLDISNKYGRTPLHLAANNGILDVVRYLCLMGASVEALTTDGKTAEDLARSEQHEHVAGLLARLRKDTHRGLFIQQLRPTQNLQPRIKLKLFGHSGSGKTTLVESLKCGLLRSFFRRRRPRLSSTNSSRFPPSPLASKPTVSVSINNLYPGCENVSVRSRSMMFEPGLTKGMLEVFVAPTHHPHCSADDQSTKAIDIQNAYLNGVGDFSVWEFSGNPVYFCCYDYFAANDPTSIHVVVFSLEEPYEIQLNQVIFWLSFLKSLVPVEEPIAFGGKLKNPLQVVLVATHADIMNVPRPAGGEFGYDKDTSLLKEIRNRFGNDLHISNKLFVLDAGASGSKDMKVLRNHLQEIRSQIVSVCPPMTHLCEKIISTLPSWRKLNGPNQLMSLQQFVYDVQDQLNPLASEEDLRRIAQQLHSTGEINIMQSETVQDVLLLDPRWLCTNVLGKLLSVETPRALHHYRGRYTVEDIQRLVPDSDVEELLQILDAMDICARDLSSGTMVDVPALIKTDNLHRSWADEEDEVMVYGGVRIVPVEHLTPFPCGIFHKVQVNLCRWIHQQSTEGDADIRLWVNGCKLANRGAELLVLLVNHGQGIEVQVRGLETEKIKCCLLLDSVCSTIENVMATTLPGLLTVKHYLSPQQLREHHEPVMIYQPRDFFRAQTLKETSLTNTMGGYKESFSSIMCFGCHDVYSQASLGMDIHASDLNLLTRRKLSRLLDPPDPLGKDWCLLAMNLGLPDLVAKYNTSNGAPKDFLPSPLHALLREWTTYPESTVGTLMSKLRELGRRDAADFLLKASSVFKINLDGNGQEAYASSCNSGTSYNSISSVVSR

PIM3 (human) = PIM3 (human) (UniProt Q86V86)
MAPK12 (human) = MAPK12 (human) (UniProt P53778)
EEF2K (human) = EEF2K (human) (UniProt O00418)
MELK (human) = MELK (human) (UniProt Q14680)
MAP3K5 (human) = MAP3K5 (human) (UniProt Q99683)
MAPK9 (human) = MAPK9 (human) (UniProt P45984)
MKNK1 (human) = MKNK1 (human) (UniProt Q9BUB5)
PRKCZ (human) = PRKCZ (human) (UniProt Q05513)
PRKCZ (human), sequence (Q05513 whole entry, looked up): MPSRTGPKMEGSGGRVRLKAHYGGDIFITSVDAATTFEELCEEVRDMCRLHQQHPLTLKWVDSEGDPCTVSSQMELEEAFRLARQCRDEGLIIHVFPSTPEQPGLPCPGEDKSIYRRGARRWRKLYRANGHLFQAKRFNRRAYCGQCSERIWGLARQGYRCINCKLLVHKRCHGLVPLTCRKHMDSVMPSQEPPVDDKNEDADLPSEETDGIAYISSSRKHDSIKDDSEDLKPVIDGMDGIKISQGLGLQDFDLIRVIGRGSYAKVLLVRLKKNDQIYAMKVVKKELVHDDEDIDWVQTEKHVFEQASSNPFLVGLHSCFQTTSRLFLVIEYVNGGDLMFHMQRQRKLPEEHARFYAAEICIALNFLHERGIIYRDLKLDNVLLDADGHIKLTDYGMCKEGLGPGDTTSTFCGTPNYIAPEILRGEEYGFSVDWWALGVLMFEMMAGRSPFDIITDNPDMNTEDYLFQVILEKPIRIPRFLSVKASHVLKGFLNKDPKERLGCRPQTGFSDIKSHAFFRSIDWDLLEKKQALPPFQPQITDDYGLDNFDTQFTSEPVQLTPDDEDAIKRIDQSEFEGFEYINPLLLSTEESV

PAK7 (human) = PAK7 (human) (UniProt Q9P286)
PHKG1 (human) = PHKG1 (human) (UniProt Q16816)
PHKG1 (human), sequence (Q16816 whole entry, looked up): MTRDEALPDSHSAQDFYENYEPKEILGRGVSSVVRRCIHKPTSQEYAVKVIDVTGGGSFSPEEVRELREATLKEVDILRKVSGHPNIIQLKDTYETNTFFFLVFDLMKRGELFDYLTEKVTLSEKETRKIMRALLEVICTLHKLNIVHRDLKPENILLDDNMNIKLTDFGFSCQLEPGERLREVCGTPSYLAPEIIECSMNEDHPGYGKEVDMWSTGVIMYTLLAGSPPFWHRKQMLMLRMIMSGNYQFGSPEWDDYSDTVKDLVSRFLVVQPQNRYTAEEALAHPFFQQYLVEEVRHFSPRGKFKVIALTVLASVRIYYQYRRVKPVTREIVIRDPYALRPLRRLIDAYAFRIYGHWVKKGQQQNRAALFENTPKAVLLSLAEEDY

ERBB4 (human) = ERBB4 (human) (UniProt Q15303)
MAPKAPK2 (human) = MAPKAPK2 (human) (UniProt P49137)
MARK1 (human) = MARK1 (human) (UniProt Q9P0L2)
MARK1 (human), sequence (Q9P0L2 whole entry, looked up): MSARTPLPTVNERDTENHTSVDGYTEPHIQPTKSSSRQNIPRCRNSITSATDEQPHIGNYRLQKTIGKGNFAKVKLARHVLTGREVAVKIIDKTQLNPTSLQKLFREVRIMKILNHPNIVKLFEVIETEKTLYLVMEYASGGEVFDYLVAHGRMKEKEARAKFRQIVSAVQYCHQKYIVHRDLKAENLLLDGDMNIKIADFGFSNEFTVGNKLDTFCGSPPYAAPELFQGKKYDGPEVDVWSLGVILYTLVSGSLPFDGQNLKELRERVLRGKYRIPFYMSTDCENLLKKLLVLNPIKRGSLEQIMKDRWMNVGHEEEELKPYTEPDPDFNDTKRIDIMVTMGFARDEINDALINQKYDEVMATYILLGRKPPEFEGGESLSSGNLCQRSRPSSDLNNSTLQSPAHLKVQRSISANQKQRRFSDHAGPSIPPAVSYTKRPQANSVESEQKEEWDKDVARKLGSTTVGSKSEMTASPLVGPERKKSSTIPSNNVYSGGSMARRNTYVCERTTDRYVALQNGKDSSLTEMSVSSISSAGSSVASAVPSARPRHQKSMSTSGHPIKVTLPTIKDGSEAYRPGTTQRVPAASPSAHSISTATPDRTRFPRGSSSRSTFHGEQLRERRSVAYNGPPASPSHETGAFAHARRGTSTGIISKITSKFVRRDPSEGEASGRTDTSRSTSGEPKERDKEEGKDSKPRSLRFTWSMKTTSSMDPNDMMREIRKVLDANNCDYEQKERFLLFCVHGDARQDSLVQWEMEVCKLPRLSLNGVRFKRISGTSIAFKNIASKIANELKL

HIPK3 (human) = HIPK3 (human) (UniProt Q9H422)
EPHB4 (human) = EPHB4 (human) (UniProt P54760)
EPHB4 (human), sequence (P54760 whole entry, looked up): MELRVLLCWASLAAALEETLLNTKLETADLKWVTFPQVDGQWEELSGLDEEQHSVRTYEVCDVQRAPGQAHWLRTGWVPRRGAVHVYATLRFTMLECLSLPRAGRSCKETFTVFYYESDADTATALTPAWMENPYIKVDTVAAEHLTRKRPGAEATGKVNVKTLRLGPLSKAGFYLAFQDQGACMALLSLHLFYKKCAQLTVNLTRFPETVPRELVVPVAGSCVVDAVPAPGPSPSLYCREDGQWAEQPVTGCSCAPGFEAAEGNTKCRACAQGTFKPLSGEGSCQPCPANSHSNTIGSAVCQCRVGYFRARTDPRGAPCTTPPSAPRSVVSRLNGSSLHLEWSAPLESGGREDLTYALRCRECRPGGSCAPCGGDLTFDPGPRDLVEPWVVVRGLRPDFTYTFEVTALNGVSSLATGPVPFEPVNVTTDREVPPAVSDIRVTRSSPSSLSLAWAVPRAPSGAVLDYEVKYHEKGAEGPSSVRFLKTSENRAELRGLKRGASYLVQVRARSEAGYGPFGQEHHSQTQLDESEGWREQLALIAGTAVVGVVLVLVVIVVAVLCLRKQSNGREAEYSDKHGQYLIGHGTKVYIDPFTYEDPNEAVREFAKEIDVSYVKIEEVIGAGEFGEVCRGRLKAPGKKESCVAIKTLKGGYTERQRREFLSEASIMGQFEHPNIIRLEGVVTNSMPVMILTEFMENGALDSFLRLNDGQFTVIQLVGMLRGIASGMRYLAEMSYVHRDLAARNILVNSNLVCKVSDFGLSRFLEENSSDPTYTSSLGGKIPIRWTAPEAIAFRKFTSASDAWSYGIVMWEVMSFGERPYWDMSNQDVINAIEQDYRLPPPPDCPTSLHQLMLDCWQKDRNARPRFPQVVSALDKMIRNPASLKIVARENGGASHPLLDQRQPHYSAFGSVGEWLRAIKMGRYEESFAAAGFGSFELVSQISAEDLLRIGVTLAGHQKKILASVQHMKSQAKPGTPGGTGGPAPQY

PIM1 (human) = PIM1 (human) (UniProt P11309)
MAP2K6 (human) = MAP2K6 (human) (UniProt P52564)
[1] = system: SGK1 (human), O00141 [S422D]
MAPK13 (human) = MAPK13 (human) (UniProt O15264)
MAP2K2 (human) = MAP2K2 (human) (UniProt P36507)
PIM2 (human) = PIM2 (human) (UniProt Q9P1W9)
PRKACA (human) = PRKACA (human) (UniProt P17612)
IGF1R (human) = IGF1R (human) (UniProt P08069)
PRKAA1 or PRKAA2 (rat) = conditions: accession and sequence are those of the human protein
FGFR1 (human) = FGFR1 (human) (UniProt P11362)
MAPKAPK5 (human) = MAPKAPK5 (human) (UniProt Q8IW41)
GSK3B (human) = GSK3B (human) (UniProt P49841)

IKBKE (human), sequence (Q14164 whole entry, looked up): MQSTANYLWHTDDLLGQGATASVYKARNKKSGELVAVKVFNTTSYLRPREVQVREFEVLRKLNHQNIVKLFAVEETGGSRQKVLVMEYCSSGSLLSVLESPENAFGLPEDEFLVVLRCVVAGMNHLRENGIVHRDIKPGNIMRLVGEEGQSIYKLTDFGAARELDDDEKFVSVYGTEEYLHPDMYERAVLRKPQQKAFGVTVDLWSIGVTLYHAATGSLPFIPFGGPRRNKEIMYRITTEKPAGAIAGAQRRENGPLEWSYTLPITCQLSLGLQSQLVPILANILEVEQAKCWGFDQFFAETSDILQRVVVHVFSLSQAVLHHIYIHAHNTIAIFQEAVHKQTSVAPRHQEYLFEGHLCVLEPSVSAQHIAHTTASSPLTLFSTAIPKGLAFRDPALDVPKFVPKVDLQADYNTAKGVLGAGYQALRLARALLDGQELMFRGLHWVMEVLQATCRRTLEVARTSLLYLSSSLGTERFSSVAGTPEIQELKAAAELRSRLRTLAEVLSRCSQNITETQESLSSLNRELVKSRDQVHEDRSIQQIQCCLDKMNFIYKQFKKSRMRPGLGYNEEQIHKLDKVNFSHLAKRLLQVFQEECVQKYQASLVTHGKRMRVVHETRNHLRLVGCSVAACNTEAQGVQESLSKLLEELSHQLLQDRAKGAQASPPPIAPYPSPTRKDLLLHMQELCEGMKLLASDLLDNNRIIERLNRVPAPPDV

SMILES: O=C(N[C@@H](COc1ccc2[nH]c(=O)[nH]c2c1)c1ccccc1)c1cccn(Cc2ccc(F)c(F)c2)c1=O
residual activity (BRSK2 (human); compound 0.1 µM): 118%
residual activity (BRSK2 (human); compound 1.0 µM): 90%
residual activity (BRSK2 (human); compound 10.0 µM): 79%
residual activity (STK3 (human); compound 0.1 µM): 102%
residual activity (STK3 (human); compound 1.0 µM): 105%
residual activity (STK3 (human); compound 10.0 µM): 100%
residual activity (MAPK3 (human); compound 0.1 µM): 93%
residual activity (MAPK3 (human); compound 1.0 µM): 101%
residual activity (MAPK3 (human); compound 10.0 µM): 95%
residual activity (SYK (human); compound 0.1 µM): 99%
residual activity (SYK (human); compound 1.0 µM): 88%
residual activity (SYK (human); compound 10.0 µM): 82%
residual activity (CAMKK2 (human); compound 1.0 µM): 104%
residual activity (CAMKK2 (human); compound 10.0 µM): 90%
residual activity (IKBKE (human); compound 0.1 µM): 103%
residual activity (IKBKE (human); compound 1.0 µM): 109%
residual activity (IKBKE (human); compound 10.0 µM): 95%
residual activity (BRSK1 (human); compound 0.1 µM): 118%
residual activity (BRSK1 (human); compound 1.0 µM): 102%
residual activity (BRSK1 (human); compound 10.0 µM): 92%
residual activity (DYRK1A (human); compound 0.1 µM): 113%
residual activity (DYRK1A (human); compound 1.0 µM): 97%
residual activity (DYRK1A (human); compound 10.0 µM): 79%
residual activity (DAPK1 (human); compound 0.1 µM): 106%
residual activity (DAPK1 (human); compound 1.0 µM): 113%
residual activity (DAPK1 (human); compound 10.0 µM): 91%
residual activity (PIM3 (human); compound 0.1 µM): 103%
residual activity (PIM3 (human); compound 1.0 µM): 108%
residual activity (PIM3 (human); compound 10.0 µM): 95%
residual activity (MAPK12 (human); compound 0.1 µM): 98%
residual activity (MAPK12 (human); compound 1.0 µM): 110%
residual activity (MAPK12 (human); compound 10.0 µM): 105%
residual activity (EEF2K (human); compound 0.1 µM): 95%
residual activity (EEF2K (human); compound 1.0 µM): 103%
residual activity (EEF2K (human); compound 10.0 µM): 107%
residual activity (MELK (human); compound 0.1 µM): 97%
residual activity (MELK (human); compound 1.0 µM): 110%
residual activity (MELK (human); compound 10.0 µM): 99%
residual activity (MAP3K5 (human); compound 0.1 µM): 110%
residual activity (MAP3K5 (human); compound 1.0 µM): 105%
residual activity (MAP3K5 (human); compound 10.0 µM): 92%
residual activity (MAPK9 (human); compound 0.1 µM): 93%
residual activity (MAPK9 (human); compound 1.0 µM): 97%
residual activity (MAPK9 (human); compound 10.0 µM): 95%
residual activity (MKNK1 (human); compound 0.1 µM): 106%
residual activity (MKNK1 (human); compound 1.0 µM): 99%
residual activity (MKNK1 (human); compound 10.0 µM): 99%
residual activity (PRKCZ (human); compound 0.1 µM): 104%
residual activity (PRKCZ (human); compound 1.0 µM): 106%
residual activity (PRKCZ (human); compound 10.0 µM): 88%
residual activity (PAK7 (human); compound 0.1 µM): 104%
residual activity (PAK7 (human); compound 1.0 µM): 92%
residual activity (PAK7 (human); compound 10.0 µM): 64%
residual activity (PHKG1 (human); compound 0.1 µM): 100%
residual activity (PHKG1 (human); compound 1.0 µM): 117%
residual activity (ERBB4 (human); compound 0.1 µM): 102%
residual activity (ERBB4 (human); compound 1.0 µM): 100%
residual activity (ERBB4 (human); compound 10.0 µM): 98%
residual activity (MAPKAPK2 (human); compound 0.1 µM): 99%
residual activity (MAPKAPK2 (human); compound 1.0 µM): 101%
residual activity (MAPKAPK2 (human); compound 10.0 µM): 90%
residual activity (MARK1 (human); compound 10.0 µM): 107%
residual activity (HIPK3 (human); compound 0.1 µM): 99%
residual activity (HIPK3 (human); compound 1.0 µM): 108%
residual activity (HIPK3 (human); compound 10.0 µM): 91%
residual activity (EPHB4 (human); compound 1.0 µM): 85%
residual activity (EPHB4 (human); compound 10.0 µM): 87%
residual activity (PIM1 (human); compound 0.1 µM): 101%
residual activity (PIM1 (human); compound 1.0 µM): 105%
residual activity (PIM1 (human); compound 10.0 µM): 76%
residual activity (MAP2K6 (human); compound 0.1 µM): 94%
residual activity (MAP2K6 (human); compound 1.0 µM): 89%
residual activity (MAP2K6 (human); compound 10.0 µM): 108%
residual activity ([1]; compound 0.1 µM): 106%
residual activity ([1]; compound 1.0 µM): 102%
residual activity ([1]; compound 10.0 µM): 102%
residual activity (MAPK13 (human); compound 0.1 µM): 91%
residual activity (MAPK13 (human); compound 1.0 µM): 97%
residual activity (MAPK13 (human); compound 10.0 µM): 94%
residual activity (MAP2K2 (human); compound 0.1 µM): 121%
residual activity (MAP2K2 (human); compound 1.0 µM): 124%
residual activity (MAP2K2 (human); compound 10.0 µM): 135%
residual activity (PIM2 (human); compound 0.1 µM): 107%
residual activity (PIM2 (human); compound 1.0 µM): 105%
residual activity (PIM2 (human); compound 10.0 µM): 85%
residual activity (PRKACA (human); compound 0.1 µM): 105%
residual activity (PRKACA (human); compound 1.0 µM): 112%
residual activity (PRKACA (human); compound 10.0 µM): 111%
residual activity (IGF1R (human); compound 0.1 µM): 105%
residual activity (IGF1R (human); compound 1.0 µM): 105%
residual activity (IGF1R (human); compound 10.0 µM): 103%
residual activity (PRKAA1 or PRKAA2 (rat); compound 0.1 µM): 97%
residual activity (PRKAA1 or PRKAA2 (rat); compound 1.0 µM): 99%
residual activity (PRKAA1 or PRKAA2 (rat); compound 10.0 µM): 99%
residual activity (FGFR1 (human); compound 0.1 µM): 96%
residual activity (FGFR1 (human); compound 1.0 µM): 97%
residual activity (FGFR1 (human); compound 10.0 µM): 75%
residual activity (MAPKAPK5 (human); compound 0.1 µM): 108%
residual activity (MAPKAPK5 (human); compound 1.0 µM): 100%
residual activity (MAPKAPK5 (human); compound 10.0 µM): 95%
residual activity (GSK3B (human); compound 0.1 µM): 97%
residual activity (GSK3B (human); compound 1.0 µM): 96%
residual activity (GSK3B (human); compound 10.0 µM): 64%

residual activity (BRSK2 (human); compound 1.0 µM): 115%
residual activity (BRSK2 (human); compound 10.0 µM): 105%
residual activity (STK3 (human); compound 1.0 µM): 93%
residual activity (STK3 (human); compound 10.0 µM): 76%
residual activity (MAPK3 (human); compound 1.0 µM): 101%
residual activity (MAPK3 (human); compound 10.0 µM): 82%
residual activity (SYK (human); compound 1.0 µM): 114%
residual activity (SYK (human); compound 10.0 µM): 102%
residual activity (CAMKK2 (human); compound 1.0 µM): 105%
residual activity (CAMKK2 (human); compound 10.0 µM): 44%
residual activity (IKBKE (human); compound 1.0 µM): 109%
residual activity (IKBKE (human); compound 10.0 µM): 60%
residual activity (BRSK1 (human); compound 1.0 µM): 138%
residual activity (BRSK1 (human); compound 10.0 µM): 104%
residual activity (DYRK1A (human); compound 1.0 µM): 27%
residual activity (DYRK1A (human); compound 10.0 µM): 5%
residual activity (DAPK1 (human); compound 1.0 µM): 47%
residual activity (DAPK1 (human); compound 10.0 µM): 17%
residual activity (PIM3 (human); compound 1.0 µM): 74%
residual activity (PIM3 (human); compound 10.0 µM): 31%
residual activity (MAPK12 (human); compound 1.0 µM): 91%
residual activity (MAPK12 (human); compound 10.0 µM): 73%
residual activity (EEF2K (human); compound 1.0 µM): 106%
residual activity (EEF2K (human); compound 10.0 µM): 80%
residual activity (MELK (human); compound 1.0 µM): 81%
residual activity (MELK (human); compound 10.0 µM): 19%
residual activity (MAP3K5 (human); compound 1.0 µM): 95%
residual activity (MAP3K5 (human); compound 10.0 µM): 72%
residual activity (MAPK9 (human); compound 1.0 µM): 113%
residual activity (MAPK9 (human); compound 10.0 µM): 100%
residual activity (MKNK1 (human); compound 1.0 µM): 89%
residual activity (MKNK1 (human); compound 10.0 µM): 55%
residual activity (PRKCZ (human); compound 1.0 µM): 126%
residual activity (PRKCZ (human); compound 10.0 µM): 60%
residual activity (PAK7 (human); compound 1.0 µM): 103%
residual activity (PAK7 (human); compound 10.0 µM): 94%
residual activity (PHKG1 (human); compound 1.0 µM): 102%
residual activity (PHKG1 (human); compound 10.0 µM): 82%
residual activity (ERBB4 (human); compound 1.0 µM): 94%
residual activity (ERBB4 (human); compound 10.0 µM): 89%
residual activity (MAPKAPK2 (human); compound 1.0 µM): 97%
residual activity (MAPKAPK2 (human); compound 10.0 µM): 94%
residual activity (MARK1 (human); compound 1.0 µM): 99%
residual activity (MARK1 (human); compound 10.0 µM): 72%
residual activity (HIPK3 (human); compound 1.0 µM): 63%
residual activity (HIPK3 (human); compound 10.0 µM): 10%
residual activity (EPHB4 (human); compound 1.0 µM): 109%
residual activity (EPHB4 (human); compound 10.0 µM): 110%
residual activity (PIM1 (human); compound 1.0 µM): 70%
residual activity (PIM1 (human); compound 10.0 µM): 17%
residual activity (MAP2K6 (human); compound 1.0 µM): 94%
residual activity (MAP2K6 (human); compound 10.0 µM): 100%
residual activity ([1]; compound 1.0 µM): 93%
residual activity ([1]; compound 10.0 µM): 39%
residual activity (MAPK13 (human); compound 1.0 µM): 113%
residual activity (MAPK13 (human); compound 10.0 µM): 77%
residual activity (MAP2K2 (human); compound 1.0 µM): 87%
residual activity (MAP2K2 (human); compound 10.0 µM): 70%
residual activity (PIM2 (human); compound 1.0 µM): 87%
residual activity (PIM2 (human); compound 10.0 µM): 36%
residual activity (PRKACA (human); compound 1.0 µM): 101%
residual activity (PRKACA (human); compound 10.0 µM): 89%
residual activity (IGF1R (human); compound 1.0 µM): 74%
residual activity (IGF1R (human); compound 10.0 µM): 74%
residual activity (PRKAA1 or PRKAA2 (rat); compound 1.0 µM): 81%
residual activity (PRKAA1 or PRKAA2 (rat); compound 10.0 µM): 51%
residual activity (FGFR1 (human); compound 1.0 µM): 102%
residual activity (FGFR1 (human); compound 10.0 µM): 76%
residual activity (MAPKAPK5 (human); compound 1.0 µM): 110%
residual activity (MAPKAPK5 (human); compound 10.0 µM): 67%
residual activity (GSK3B (human); compound 1.0 µM): 63%
residual activity (GSK3B (human); compound 10.0 µM): 14%
SMILES: FC(F)(F)c1ccc(-c2ccc(Oc3cncc4sc(-c5nn[nH]n5)cc34)cc2)cc1
